Source: the CheMixHub viscosity set
± gives the uncertainty stated by the source.

Assay: xn = mol fraction of the nth substance listed

CCOC(=O)CCl + CCCCCCCCCCCC
viscosity (298.15 K, 101.33 kPa, x1 = 0.0961): 1.25 ± 0.025 mPa·s | viscosity (298.15 K, 101.33 kPa, x1 = 0.2041): 1.197 ± 0.024 mPa·s | viscosity (298.15 K, 101.33 kPa, x1 = 0.3012): 1.159 ± 0.023 mPa·s | viscosity (298.15 K, 101.33 kPa, x1 = 0.4005): 1.14 ± 0.023 mPa·s | viscosity (298.15 K, 101.33 kPa, x1 = 0.5029): 1.127 ± 0.023 mPa·s | viscosity (298.15 K, 101.33 kPa, x1 = 0.6026): 1.116 ± 0.02 mPa·s | viscosity (298.15 K, 101.33 kPa, x1 = 0.7029): 1.105 ± 0.021 mPa·s | viscosity (298.15 K, 101.33 kPa, x1 = 0.804): 1.101 ± 0.024 mPa·s | viscosity (298.15 K, 101.33 kPa, x1 = 0.9017): 1.099 ± 0.025 mPa·s | viscosity (303.15 K, 101.33 kPa, x1 = 0.0961): 1.149 ± 0.022 mPa·s | viscosity (303.15 K, 101.33 kPa, x1 = 0.2041): 1.094 ± 0.022 mPa·s | viscosity (303.15 K, 101.33 kPa, x1 = 0.3012): 1.062 ± 0.021 mPa·s | viscosity (303.15 K, 101.33 kPa, x1 = 0.4005): 1.041 ± 0.022 mPa·s | viscosity (303.15 K, 101.33 kPa, x1 = 0.5029): 1.027 ± 0.021 mPa·s | viscosity (303.15 K, 101.33 kPa, x1 = 0.6026): 1.029 ± 0.021 mPa·s | viscosity (303.15 K, 101.33 kPa, x1 = 0.7029): 1.015 ± 0.021 mPa·s | viscosity (303.15 K, 101.33 kPa, x1 = 0.804): 0.994 ± 0.023 mPa·s | viscosity (303.15 K, 101.33 kPa, x1 = 0.9017): 0.985 ± 0.023 mPa·s | viscosity (308.15 K, 101.33 kPa, x1 = 0.0961): 1.054 ± 0.02 mPa·s | viscosity (308.15 K, 101.33 kPa, x1 = 0.2041): 1.019 ± 0.018 mPa·s | viscosity (308.15 K, 101.33 kPa, x1 = 0.3012): 0.979 ± 0.018 mPa·s | viscosity (308.15 K, 101.33 kPa, x1 = 0.4005): 0.96 ± 0.018 mPa·s | viscosity (308.15 K, 101.33 kPa, x1 = 0.5029): 0.946 ± 0.018 mPa·s | viscosity (308.15 K, 101.33 kPa, x1 = 0.6026): 0.94 ± 0.02 mPa·s | viscosity (308.15 K, 101.33 kPa, x1 = 0.7029): 0.93 ± 0.019 mPa·s | viscosity (308.15 K, 101.33 kPa, x1 = 0.804): 0.927 ± 0.016 mPa·s | viscosity (308.15 K, 101.33 kPa, x1 = 0.9017): 0.929 ± 0.014 mPa·s

CCCCOCCO + CCCO
viscosity (298.15 K, 101 kPa, x1 = 0.8553): 2.725 ± 0.12 mPa·s | viscosity (303.15 K, 101 kPa, x1 = 0.3032): 1.925 ± 0.12 mPa·s | viscosity (303.15 K, 101 kPa, x1 = 0.9516): 2.615 ± 0.12 mPa·s

CCNCCO + CN(C)CCO
viscosity (293.15 K, 101.3 kPa, x1 = 0.0999): 3.88 ± 0.04 mPa·s | viscosity (293.15 K, 101.3 kPa, x1 = 0.2001): 4.63 ± 0.05 mPa·s | viscosity (293.15 K, 101.3 kPa, x1 = 0.3): 5.5 ± 0.05 mPa·s | viscosity (293.15 K, 101.3 kPa, x1 = 0.4): 6.48 ± 0.06 mPa·s | viscosity (293.15 K, 101.3 kPa, x1 = 0.4998): 7.55 ± 0.07 mPa·s | viscosity (293.15 K, 101.3 kPa, x1 = 0.6001): 8.66 ± 0.08 mPa·s | viscosity (293.15 K, 101.3 kPa, x1 = 0.7): 9.82 ± 0.09 mPa·s | viscosity (293.15 K, 101.3 kPa, x1 = 0.8002): 10.97 ± 0.1 mPa·s | viscosity (293.15 K, 101.3 kPa, x1 = 0.9): 12.14 ± 0.11 mPa·s | viscosity (303.15 K, 101.3 kPa, x1 = 0.0999): 2.92 ± 0.03 mPa·s | viscosity (303.15 K, 101.3 kPa, x1 = 0.2001): 3.31 ± 0.04 mPa·s | viscosity (303.15 K, 101.3 kPa, x1 = 0.3): 3.85 ± 0.04 mPa·s | viscosity (303.15 K, 101.3 kPa, x1 = 0.4): 4.47 ± 0.05 mPa·s | viscosity (303.15 K, 101.3 kPa, x1 = 0.4998): 5.17 ± 0.05 mPa·s | viscosity (303.15 K, 101.3 kPa, x1 = 0.6001): 5.88 ± 0.06 mPa·s | viscosity (303.15 K, 101.3 kPa, x1 = 0.7): 6.63 ± 0.06 mPa·s | viscosity (303.15 K, 101.3 kPa, x1 = 0.8002): 7.39 ± 0.07 mPa·s | viscosity (303.15 K, 101.3 kPa, x1 = 0.9): 8.16 ± 0.08 mPa·s | viscosity (313.15 K, 101.3 kPa, x1 = 0.0999): 2.18 ± 0.03 mPa·s | viscosity (313.15 K, 101.3 kPa, x1 = 0.2001): 2.42 ± 0.03 mPa·s | viscosity (313.15 K, 101.3 kPa, x1 = 0.3): 2.8 ± 0.03 mPa·s | viscosity (313.15 K, 101.3 kPa, x1 = 0.4): 3.22 ± 0.04 mPa·s | viscosity (313.15 K, 101.3 kPa, x1 = 0.4998): 3.71 ± 0.04 mPa·s | viscosity (313.15 K, 101.3 kPa, x1 = 0.6001): 4.24 ± 0.04 mPa·s | viscosity (313.15 K, 101.3 kPa, x1 = 0.7): 4.78 ± 0.05 mPa·s | viscosity (313.15 K, 101.3 kPa, x1 = 0.8002): 5.32 ± 0.05 mPa·s | viscosity (313.15 K, 101.3 kPa, x1 = 0.9): 5.84 ± 0.06 mPa·s | viscosity (323.15 K, 101.3 kPa, x1 = 0.0999): 1.79 ± 0.03 mPa·s | viscosity (323.15 K, 101.3 kPa, x1 = 0.2001): 1.95 ± 0.03 mPa·s | viscosity (323.15 K, 101.3 kPa, x1 = 0.3): 2.15 ± 0.03 mPa·s | viscosity (323.15 K, 101.3 kPa, x1 = 0.4): 2.39 ± 0.03 mPa·s | viscosity (323.15 K, 101.3 kPa, x1 = 0.4998): 2.68 ± 0.03 mPa·s | viscosity (323.15 K, 101.3 kPa, x1 = 0.6001): 2.98 ± 0.03 mPa·s | viscosity (323.15 K, 101.3 kPa, x1 = 0.7): 3.3 ± 0.04 mPa·s | viscosity (323.15 K, 101.3 kPa, x1 = 0.8002): 3.62 ± 0.04 mPa·s | viscosity (323.15 K, 101.3 kPa, x1 = 0.9): 3.93 ± 0.04 mPa·s

CCOC(=O)CCl + Cc1cc(C)cc(C)c1
viscosity (298.15 K, 101.3 kPa, x1 = 0.1123): 0.693 ± 0.007 mPa·s | viscosity (298.15 K, 101.3 kPa, x1 = 0.2035): 0.712 ± 0.008 mPa·s | viscosity (298.15 K, 101.3 kPa, x1 = 0.2999): 0.745 ± 0.008 mPa·s | viscosity (298.15 K, 101.3 kPa, x1 = 0.4019): 0.775 ± 0.008 mPa·s | viscosity (298.15 K, 101.3 kPa, x1 = 0.4987): 0.811 ± 0.008 mPa·s | viscosity (298.15 K, 101.3 kPa, x1 = 0.5997): 0.853 ± 0.008 mPa·s | viscosity (298.15 K, 101.3 kPa, x1 = 0.6963): 0.902 ± 0.009 mPa·s | viscosity (298.15 K, 101.3 kPa, x1 = 0.7974): 0.964 ± 0.009 mPa·s | viscosity (298.15 K, 101.3 kPa, x1 = 0.8954): 1.023 ± 0.009 mPa·s | viscosity (303.15 K, 101.3 kPa, x1 = 0.1123): 0.653 ± 0.007 mPa·s | viscosity (303.15 K, 101.3 kPa, x1 = 0.2035): 0.669 ± 0.007 mPa·s | viscosity (303.15 K, 101.3 kPa, x1 = 0.2999): 0.698 ± 0.007 mPa·s | viscosity (303.15 K, 101.3 kPa, x1 = 0.4019): 0.725 ± 0.008 mPa·s | viscosity (303.15 K, 101.3 kPa, x1 = 0.4987): 0.759 ± 0.008 mPa·s | viscosity (303.15 K, 101.3 kPa, x1 = 0.5997): 0.798 ± 0.008 mPa·s | viscosity (303.15 K, 101.3 kPa, x1 = 0.6963): 0.841 ± 0.008 mPa·s | viscosity (303.15 K, 101.3 kPa, x1 = 0.7974): 0.899 ± 0.009 mPa·s | viscosity (303.15 K, 101.3 kPa, x1 = 0.8954): 0.949 ± 0.009 mPa·s | viscosity (308.15 K, 101.3 kPa, x1 = 0.1123): 0.612 ± 0.007 mPa·s | viscosity (308.15 K, 101.3 kPa, x1 = 0.2035): 0.627 ± 0.007 mPa·s | viscosity (308.15 K, 101.3 kPa, x1 = 0.2999): 0.652 ± 0.007 mPa·s | viscosity (308.15 K, 101.3 kPa, x1 = 0.4019): 0.677 ± 0.007 mPa·s | viscosity (308.15 K, 101.3 kPa, x1 = 0.4987): 0.708 ± 0.008 mPa·s | viscosity (308.15 K, 101.3 kPa, x1 = 0.5997): 0.741 ± 0.008 mPa·s | viscosity (308.15 K, 101.3 kPa, x1 = 0.6963): 0.779 ± 0.008 mPa·s | viscosity (308.15 K, 101.3 kPa, x1 = 0.7974): 0.829 ± 0.008 mPa·s | viscosity (308.15 K, 101.3 kPa, x1 = 0.8954): 0.874 ± 0.008 mPa·s
